The results in this text go back to US7868205B2, “Inhibitors of histone deacetylase” (MethylGene Inc., priority 2003, dated 2011).

Where two headings read alike, the source gives them in different places.

This assay deals with human HDAC-1 (Homo sapiens, UniProt Q13547). Put plainly: Inhibition of histone deacetylase enzymatic (HDAC-1) activity. The class given is biochemical. On the procedure:
The following protocol was used to assay the compounds of the invention.
The mixture was pre-incubated for 5 minutes at room temperature. The reaction was started by bringing the temperature to 37° C. and adding 16 μl substrate.

Where [1] appears, read: Table 5, Boc-Lys(Ac)-AMC substrate, 37° C., 20 minutes, read-out: HDAC-1 (μM), inhibition of histone deacetylase.

Chain of human HDAC-1 (Q13547 whole entry): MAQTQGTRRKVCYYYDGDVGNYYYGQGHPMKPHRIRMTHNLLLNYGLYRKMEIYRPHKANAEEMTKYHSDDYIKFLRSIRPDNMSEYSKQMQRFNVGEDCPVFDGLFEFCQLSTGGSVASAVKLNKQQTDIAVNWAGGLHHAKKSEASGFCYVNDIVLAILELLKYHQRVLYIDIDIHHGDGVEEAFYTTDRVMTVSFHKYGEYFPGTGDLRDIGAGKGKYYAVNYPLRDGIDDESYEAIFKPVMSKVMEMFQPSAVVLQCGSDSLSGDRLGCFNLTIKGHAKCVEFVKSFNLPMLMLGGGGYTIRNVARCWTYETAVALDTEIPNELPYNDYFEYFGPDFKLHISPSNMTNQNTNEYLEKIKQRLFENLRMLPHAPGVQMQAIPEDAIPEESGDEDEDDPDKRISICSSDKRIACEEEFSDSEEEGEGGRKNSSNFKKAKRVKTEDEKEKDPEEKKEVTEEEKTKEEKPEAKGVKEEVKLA

With `COc1cc(NCc2ccc(/C=C/C(=O)Nc3cc(-c4cccs4)ccc3N)cc2)cc(OC)c1OC` [Cpd 67, trans-N-[2-amino-5-(2-thienyl)phenyl]-3-(4-{[(3,4,5-trimethoxyphenyl)amino]methyl}phenyl)acrylamide], under setting [1], the IC50 is less than 1 µM.
Regarding `COc1ccc(NCc2ccc(C(=O)Nc3cc(/C=C/C(N)=O)ccc3N)cc2)cc1OC` [Cpd 88, N-{2-amino-5-[(1E)-3-amino-3-oxoprop-1-en-1-yl]phenyl}-4-{[(3,4-dimethoxyphenyl)amino]methyl}benzamide], the IC50 under setting [1] fell in the range of 1 to 20 µM.
In the case of `COc1ccc(NCc2ccc(C(=O)Nc3ccccc3N)cc2)cc1OC` [AAA, reference compound], the IC50 is less than 1 µM (Table 6A, comparative data for planar substituent, read-out: HDAC-1 activity (μm)) and less than 1 µM (Table 6B, comparative data for planar substituent, read-out: HDAC-1 Activity).
Take `COc1ccc(NCc2ccc(C(=O)Nc3cc(-c4cccs4)ccc3N)cc2)cc1F` [Cpd 12, N-[2-amino-5-(2-thienyl)phenyl]-4{[(3-fluoro-4-methoxyphenyl)amino]methyl}benzamide]: the IC50 under setting [1] is less than 1 µM.
The same measure, in the same setting: as for `COc1ccc(NCc2ccc(C(=O)Nc3c(N)cccc3N)cc2)cc1OC` [Cpd 94, N-[2,6-diaminophenyl]-4-{[(3,4-dimethoxyphenyl)amino]methyl}benzamide], the figure is 1 to 20 µM; as for `COc1ccc(NCc2ccc(C(=O)Nc3ccc(Br)cc3N)cc2)cc1OC` [Cpd 18, N-(2-amino-4-bromophenyl)-4-{[(3,4-dimethoxyphenyl)amino]methyl}benzamide], 1 to 20 µM.
The same measure, in the same setting: as for `COc1ccc(NCc2ccc(C(=O)Nc3csc(-c4ccccc4)c3N)cc2)cc1OC` [Cpd 61, N-(4-amino-5-phenyl-3-thienyl)-4-{[(3,4-dimethoxyphenyl)amino]methyl}benzamide], the figure is greater than 20 µM; as for `Nc1ccc(-c2cccs2)cc1NC(=O)c1ccc(CNc2nccc(-c3cccnc3)n2)cc1` [Cpd 43, N-[2-amino-5-(2-thienyl)phenyl]-4{[(4-pyridin-3-ylpyrimidin-2-yl)amino]methyl}benzamide], less than 1 µM.
Turning to `COc1ccc(NCc2ccc(C(=O)Nc3cc(Cl)c(F)cc3N)cc2)cc1OC` [Cpd 35, N-(2-Amino-5-chloro-4-fluoro-phenyl)-4-[(3,4-dimethoxy-phenylamino)-methyl]-benzamide], the IC50 under setting [1] lay in the range of 1 to 20 µM.
The same measure, in the same setting: as for `COc1ccc(NCc2ccc(C(=O)Nc3cc(Cl)c(Cl)cc3N)cc2)cc1OC` [Cpd 36, N-(2-Amino-4,5-dichloro-phenyl)-4-[(3,4-dimethoxy-phenylamino)-methyl]-benzamide], the figure is 1 to 20 µM; as for `COc1ccc(NCc2ccc(C(=O)Nc3cc(C#CCO)ccc3N)cc2)cc1OC` [Cpd 76, N-[2-amino-5-(3-hydroxyprop-1-yn-1-yl)phenyl]-4-{[(3,4-dimethoxyphenyl)amino]methyl}benzamide], less than 1 µM.
Regarding `COc1cc(NCc2ccc3oc(C(=O)Nc4cc(-c5cccs5)ccc4N)cc3c2)cc(OC)c1OC` [Cpd 29, N-[2-amino-5-(2-thienyl)phenyl]-5-{[(3,4,5-trimethoxyphenyl)amino]methyl}-1-benzofuran-2-carboxamide], under setting [1], the IC50 was less than 1 µM.
Consider `COc1ccc(NCc2ccc(C(=O)Nc3cc(-c4cccs4)ccc3N)cc2)cc1OC` [Cpd 6, N-[2-amino-5-(2-thienyl)phenyl]-4{[(3,4-dimethoxyphenyl)amino]methyl}benzamide], for which, under setting [1], the IC50 was less than 1 µM.
The compound `COc1ccc(NCc2ccc(C(=O)Nc3cc(-c4ccoc4)ccc3N)cc2)cc1OC` [Cpd 91, N-[2-amino-5-(3-furanyl)phenyl]-4-{[(3,4-dimethoxyphenyl)amino]methyl}benzamide] yielded an IC50 of less than 1 µM.
In the case of `CCCCc1ccc(N)c(NC(=O)c2ccc(C)cc2)c1` [Cpd 69, N-(2-amino-5-butylphenyl)-4-methylbenzamide], under setting [1], the IC50 is 1 to 20 µM.
Regarding `COc1ccc(NCc2ccc(C(=O)Nc3cc(-c4cccs4)ccc3[N+](=O)[O-])cc2)cc1OC` [Cpd 5, 4-[(3,4-dimethoxy-phenylamino)-methyl]-N-(2-nitro-5-thiophen-2-yl-phenyl)-benzamide], the IC50 under setting [1] was greater than 20 µM.
